Test results reported in patent US20230114728A1 (Venatorx Pharmaceuticals, Inc., priority 2019, published 2023).
≈ marks a conversion by molar mass, not a printed value.

Columns and labels:
Assay type in all cases: cell-based
E. coli ATCC 25922 = test: Broth microdilution MIC in CAMHB; details: Escherichia coli, ATCC25922; E. coli ATCC 25922; MHB; read-out: Minimum Inhibitory Concentration, E. coli 25922
Procedure, shortened: (§1)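 MIC, read by eye, is the lowest compound concentration giving no bacterial growth after 16-20 h at 37° C. Test compounds are serially diluted 2-fold in CAMHB and seeded with 2-8×10^5 CFU/mL of bacteria taken from a 3-5 h shaking culture, following CLSI methods.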

E. coli AG100A = test: Broth microdilution MIC in CAMHB; details: Escherichia coli, read-out: Minimum Inhibitory Concentration, E. coli AG100A
Procedure, shortened: as §1

E. coli D22 = test: Broth microdilution MIC in CAMHB; details: Escherichia coli; E. coli D22 (hyper-permeable); MHB; read-out: Minimum Inhibitory Concentration, E. coli D22
Procedure, shortened: as §1

[1] = system: P. aeruginosa (ΔmexAB-oprM); test: Broth microdilution MIC in CAMHB; details: Pseudomonas aeruginosa, read-out: Minimum Inhibitory Concentration, P. aeruginosa ΔmexAB-OprM
Procedure, shortened: as §1

N. gonorrhoeae WHO K = test: Liquid broth MIC in Fastidious broth; details: Neisseria gonorrhoeae, read-out: Minimum Inhibitory Concentration, N. gonorrhoeae WHO K
Description: (§2) Example V: In Vitro Antibacterial Assays for N. gonorrhoeae Strains
(§3) Additional antibacterial testing of the series was performed in 8 reference strains of N. gonorrhoeae (ATCC 49226, FA1090, WHO G, WHO L, WHO K, H041, WHO Z, and WHO Q). ATCC 49226, FA1090, WHO G, and WHO L produce wild type or wild-type like PBP2. WHO K, H041, WHO Z, and WHO Q produce mosaic PBP2. Liquid broth-based assays were used for antibacterial testing of PBP inhibitors in Neisseria gonorrhoeae. Briefly, cryo-preserved bacterial cultures of clinical strains were streaked for isolation on Chocolate Agar (72 g/L (2×) GC Agar Base (BD #228950) and 2% (2×) Hemoglobin was autoclaved at 121° C. for 20 minutes to sterilize. Once cooled to ˜50° C. the 2× GC Agar Base and 2× Hemoglobin solutions are combined and 1% IsoVitaleX Enrichment (BD #211876) was added to the solution). Strains were incubated at 36° C. and 5% CO2 to allow growth of colonies, 24 hours before inoculum preparation. 2-fold serial dilutions of test compounds were conducted in a 96 well plate with a final volume of 75 μL per well at 2-fold the final desired concentration in Fastidious broth (Remel #R07664). For preparation of assay inoculum, a direct suspension was prepared by aseptically swabbing all colonies from agar plates into culture tubes containing 2 mL of fresh sterile saline. After the dilution plates were set up, direct suspensions were then diluted in a cuvette containing sterile saline and the optical density was measured at 600 nm. Inocula were diluted such that 75 μL of this culture in Fastidious broth results in a starting bacterial concentration of 5×10^5 CFU/mL when added to the dilution plates. The plates were incubated for ˜24 hours at 36° C. and 5% CO2. The MIC was read visually as the lowest concentration well with <10% bacterial growth compared to wells of full growth.

N. gonorrhoeae H041 = test: Liquid broth MIC in Fastidious broth; details: Neisseria gonorrhoeae, H041, read-out: Minimum Inhibitory Concentration, N. gonorrhoeae H041
Description: as §2, §3

[2] = system: N. gonorrhoeae ATCC 49226; test: Liquid broth MIC in Fastidious broth; details: Neisseria gonorrhoeae, ATCC49226; N. gonorrhoeae strain ATCC 49226; Fastidious broth; read-out: Minimum Inhibitory Concentration, N. gonorrhoeae ATCC 49226
Description: as §2, §3

N. gonorrhoeae FA1090 = test: Liquid broth MIC in Fastidious broth; details: Neisseria gonorrhoeae; N. gonorrhoeae strain FA1090; Fastidious broth; read-out: Minimum Inhibitory Concentration, N. gonorrhoeae FA1090
Description: as §2, §3

N. gonorrhoeae WHO L = test: Liquid broth MIC in Fastidious broth; details: Neisseria gonorrhoeae; N. gonorrhoeae strain WHO L; Fastidious broth; read-out: Minimum Inhibitory Concentration, N. gonorrhoeae WHO L
Description: as §2, §3

N. gonorrhoeae WHO G = test: Liquid broth MIC in Fastidious broth; details: Neisseria gonorrhoeae; N. gonorrhoeae strain WHO G; Fastidious broth; read-out: Minimum Inhibitory Concentration, N. gonorrhoeae WHO G
Description: as §2, §3

Compound | MIC (E. coli ATCC 25922) | MIC (E. coli AG100A) | MIC (E. coli D22) | MIC [1] | MIC (N. gonorrhoeae WHO K) | MIC (N. gonorrhoeae H041) | MIC [2] | MIC (N. gonorrhoeae FA1090) | MIC (N. gonorrhoeae WHO L) | MIC (N. gonorrhoeae WHO G)
CCN1CCN(C(=O)NC(C(=O)N[C@H]2Cc3ccc(SCc4ccc(O)cc4)c(C(=O)O)c3OB2O)c2csc(N)n2)C(=O)C1=O (stereo partly drawn) [Example 55, (3R)-3-(2-(2-aminothiazol-4-yl)-2-(4-ethyl-2,3-dioxopiperazine-1-carboxamido)acetamido)-2-hydroxy-7-((4-hydroxybenzyl)thio)-3,4-dihydro-2H-benzo[e][1,2]oxaborinine-8-carboxylic acid] | 32 to 64 µg/mL (≈ 47.9 to 95.7 µM) | 32 to 64 µg/mL (≈ 47.9 to 95.7 µM) | 8 to 16 µg/mL (≈ 12 to 23.9 µM) | 32 to 64 µg/mL (≈ 47.9 to 95.7 µM) | – | – | – | – | – | –
O=C(O)c1c(F)ccc2c1OB(O)[C@@H](NC(=O)[C@H](NC(=O)N1CCNC1=O)c1c(F)cc(O)c(O)c1Cl)C2 (single isomer, unassigned) [Example 34] | – | – | – | – | > 64 µg/mL | > 64 µg/mL | 16 to 32 µg/mL (≈ 28.8 to 57.7 µM) | 4 to 8 µg/mL (≈ 7.21 to 14.4 µM) | > 64 µg/mL | 16 to 32 µg/mL (≈ 28.8 to 57.7 µM)
CS(=O)(=O)N1CCN(C(=O)NC(C(=O)N[C@H]2Cc3ccc(F)c(C(=O)O)c3OB2O)c2ccc(O)c(O)c2Cl)C1=O (stereo partly drawn) [Example 23, (3R)-3-(2-(2-chloro-3,4-dihydroxyphenyl)-2-(3-(methylsulfonyl)-2-oxoimidazolidine-1-carboxamido)acetamido)-7-fluoro-2-hydroxy-3,4-dihydro-2H-benzo[e][1,2]oxaborinine-8-carboxylic acid] | – | – | – | – | > 64 µg/mL | > 64 µg/mL | > 64 µg/mL | 4 to 8 µg/mL (≈ 6.51 to 13 µM) | > 64 µg/mL | 16 to 32 µg/mL (≈ 26 to 52.1 µM)
CCN1CCN(C(=O)NC(C(=O)N[C@H]2Cc3ccc(F)c(C(=O)O)c3OB2O)c2c(F)cc(O)c(O)c2F)C(=O)C1=O (stereo partly drawn) [Example 36, (3R)-3-(2-(2,6-difluoro-3,4-dihydroxyphenyl)-2-(4-ethyl-2,3-dioxopiperazine-1-carboxamido)acetamido)-7-fluoro-2-hydroxy-3,4-dihydro-2H-benzo[e][1,2]oxaborinine-8-carboxylic acid] | – | – | – | – | 16 to 32 µg/mL (≈ 26.9 to 53.8 µM) | 16 to 32 µg/mL (≈ 26.9 to 53.8 µM) | 16 to 32 µg/mL (≈ 26.9 to 53.8 µM) | 4 to 8 µg/mL (≈ 6.73 to 13.5 µM) | > 64 µg/mL | 16 to 32 µg/mL (≈ 26.9 to 53.8 µM)
O=C(O)c1c(F)ccc2c1OB(O)[C@@H](NC(=O)C(NC(=O)N1CCN(CCF)C(=O)C1=O)c1c(F)cc(O)c(O)c1F)C2 (stereo partly drawn) [Example 37, (3R)-3-(2-(2,6-difluoro-3,4-dihydroxyphenyl)-2-(4-(2-fluoroethyl)-2,3-dioxopiperazine-1-carboxamido)acetamido)-7-fluoro-2-hydroxy-3,4-dihydro-2H-benzo[e][1,2]oxaborinine-8-carboxylic acid] | – | – | – | – | 16 to 32 µg/mL (≈ 26.1 to 52.3 µM) | 16 to 32 µg/mL (≈ 26.1 to 52.3 µM) | 16 to 32 µg/mL (≈ 26.1 to 52.3 µM) | 4 to 8 µg/mL (≈ 6.53 to 13.1 µM) | > 64 µg/mL | 16 to 32 µg/mL (≈ 26.1 to 52.3 µM)
O=C(O)c1ccc(C(NC(=O)c2ccc(O)c(O)c2Cl)C(=O)N[C@H]2Cc3cccc(C(=O)O)c3OB2O)cc1F (stereo partly drawn) [Example 7, (3R)-3-(2-(4-carboxy-3-fluorophenyl)-2-(2-chloro-3,4-dihydroxybenzamido)acetamido)-2-hydroxy-3,4-dihydro-2H-benzo[e][1,2]oxaborinine-8-carboxylic acid] | – | – | – | – | > 64 µg/mL | > 64 µg/mL | > 64 µg/mL | 16 to 32 µg/mL (≈ 27.9 to 55.9 µM) | > 64 µg/mL | > 64 µg/mL
O=C(NC(C(=O)N[C@H]1Cc2ccc(F)c(C(=O)O)c2OB1O)c1ncc(O)cc1F)c1c(F)cc(O)c(O)c1Cl (stereo partly drawn) [Example 10, (3R)-3-(2-(2-chloro-6-fluoro-3,4-dihydroxybenzamido)-2-(3-fluoro-5-hydroxypyridin-2-yl)acetamido)-7-fluoro-2-hydroxy-3,4-dihydro-2H-benzo[e][1,2]oxaborinine-8-carboxylic acid] | – | – | – | – | > 64 µg/mL | > 64 µg/mL | > 64 µg/mL | 16 to 32 µg/mL (≈ 27.5 to 55 µM) | > 64 µg/mL | > 64 µg/mL
NCCN1CCN(C(=O)N[C@@H](C(=O)N[C@H]2Cc3ccc(F)c(C(=O)O)c3OB2O)c2c(F)cc(O)c(O)c2F)C(=O)C1=O (single isomer, unassigned) [Example 40] | – | – | – | – | > 64 µg/mL | > 64 µg/mL | 16 to 32 µg/mL (≈ 26.3 to 52.5 µM) | 4 to 8 µg/mL (≈ 6.57 to 13.1 µM) | > 64 µg/mL | 16 to 32 µg/mL (≈ 26.3 to 52.5 µM)
CCN1CCN(C(=O)NC(C(=O)N[C@H]2Cc3ccc(F)c(C(=O)O)c3OB2O)c2cc(F)c(O)c(O)c2Cl)C(=O)C1=O (stereo partly drawn) [Example 42, (3R)-3-(2-(2-chloro-5-fluoro-3,4-dihydroxyphenyl)-2-(4-ethyl-2,3-dioxopiperazine-1-carboxamido)acetamido)-7-fluoro-2-hydroxy-3,4-dihydro-2H-benzo[e][1,2]oxaborinine-8-carboxylic acid] | – | – | – | – | 16 to 32 µg/mL (≈ 26.2 to 52.4 µM) | 16 to 32 µg/mL (≈ 26.2 to 52.4 µM) | 16 to 32 µg/mL (≈ 26.2 to 52.4 µM) | 4 to 8 µg/mL (≈ 6.55 to 13.1 µM) | > 64 µg/mL | 16 to 32 µg/mL (≈ 26.2 to 52.4 µM)
CS(=O)(=O)N1CCN(C(=O)N[C@@H](C(=O)N[C@H]2Cc3ccc(F)c(C(=O)O)c3OB2O)c2c(F)cc(O)c(O)c2Cl)C1=O (single isomer, unassigned) [Example 35] | – | – | – | – | > 64 µg/mL | > 64 µg/mL | 16 to 32 µg/mL (≈ 25.3 to 50.6 µM) | 4 to 8 µg/mL (≈ 6.32 to 12.6 µM) | > 64 µg/mL | 16 to 32 µg/mL (≈ 25.3 to 50.6 µM)
CC(C)(C)[C@@H](NC(=O)N1CCN(CCNC(=O)c2c(F)cc(O)c(O)c2Cl)C(=O)C1=O)C(=O)N[C@H]1Cc2ccc(F)c(C(=O)O)c2OB1O [Example 80, (R)-3-((R)-2-(4-(2-(2-chloro-6-fluoro-3,4-dihydroxybenzamido)ethyl)-2,3-dioxopiperazine-1-carboxamido)-3,3-dimethylbutanamido)-7-fluoro-2-hydroxy-3,4-dihydro-2H-benzo[e][1,2]oxaborinine-8-carboxylic acid] | – | – | – | – | > 64 µg/mL | > 64 µg/mL | 16 to 32 µg/mL (≈ 22.5 to 45.1 µM) | 4 to 8 µg/mL (≈ 5.63 to 11.3 µM) | > 64 µg/mL | 16 to 32 µg/mL (≈ 22.5 to 45.1 µM)
NCCCN1CCN(C(=O)N[C@@H](C(=O)N[C@H]2Cc3ccc(F)c(C(=O)O)c3OB2O)c2c(F)cc(O)c(O)c2F)C(=O)C1=O (single isomer, unassigned) [Example 41] | – | – | – | – | > 64 µg/mL | > 64 µg/mL | 16 to 32 µg/mL (≈ 25.7 to 51.3 µM) | 4 to 8 µg/mL (≈ 6.42 to 12.8 µM) | > 64 µg/mL | 16 to 32 µg/mL (≈ 25.7 to 51.3 µM)
O=C(O)c1ccc(C(NC(=O)c2c(F)cc(O)c(O)c2Cl)C(=O)N[C@H]2Cc3ccc(F)c(C(=O)O)c3OB2O)cc1F (stereo partly drawn) [Example 71, (3R)-3-(2-(4-carboxy-3-fluorophenyl)-2-(2-chloro-6-fluoro-3,4-dihydroxybenzamido)acetamido)-7-fluoro-2-hydroxy-3,4-dihydro-2H-benzo[e][1,2]oxaborinine-8-carboxylic acid] | – | – | – | – | > 64 µg/mL | > 64 µg/mL | > 64 µg/mL | > 64 µg/mL | > 64 µg/mL | > 64 µg/mL
CCN1CCN(C(=O)NC(C(=O)N[C@H]2Cc3ccc(S)c(C(=O)O)c3OB2O)c2csc(N)n2)C(=O)C1=O (stereo partly drawn) [Example 54, (3R)-3-(2-(2-aminothiazol-4-yl)-2-(4-ethyl-2,3-dioxopiperazine-1-carboxamido)acetamido)-2-hydroxy-7-mercapto-3,4-dihydro-2H-benzo[e][1,2]oxaborinine-8-carboxylic acid] | > 128 µg/mL | > 128 µg/mL | 32 to 64 µg/mL (≈ 56.9 to 114 µM) | 32 to 64 µg/mL (≈ 56.9 to 114 µM) | – | – | – | – | – | –
